Results as given in ChEMBL document CHEMBL4376823, “The discovery of a potent and selective third-generation EGFR kinase inhibitor as a therapy for EGFR L858R/T790M double mutant non-small cell lung cancer” (Eur J Med Chem, 2019).
pEC50, pIC50: −log10 of the molar value.

Columns and labels:
[1] = biological target: Epidermal growth factor receptor (Homo sapiens, UniProt P00533, L858R/T790M); test: Inhibition of recombinant human GST-tagged EGFR T790M/L858R mutant expressed in baculovirus expression system using Tyr 04 as substrate incubated for 1 hr by Z'-LYTE assay
[2] = biological target: T1, Epidermal growth factor receptor (Homo sapiens, UniProt P00533); test: Inhibition of recombinant human GST-tagged EGFR (668 to 1210 residues) expressed in baculovirus expression system using Tyr 04 as substrate incubated for 1 hr by Z'-LYTE assay
[3] = system: NCI-H1975; test: Antiproliferative activity against human NCI-H1975 cells expressing EGFR T790M/L858R mutant assessed as reduction in cell viability incubated for 72 hrs by MTT assay; format: functional, cell-based; conditions: nci-h1975
[4] = system: PC-9; test: Antiproliferative activity against human PC9 cells expressing EGFR L858R mutant assessed as reduction in cell viability incubated for 72 hrs by MTT assay; format: functional, cell-based; conditions: pc-9
[5] = system: NCI-H292; test: Antiproliferative activity against human NCI-H292 cells expressing EGFR assessed as reduction in cell viability incubated for 72 hrs by MTT assay; format: functional, cell-based; conditions: nci-h292
[6] = Selectivity index, ratio of IC50 for human LO2 cells to IC50 for human NCI-H1975 cells expressing EGFR T790M/L858R mutant; format: toxicity
[7] = Selectivity index, ratio of IC50 for human BJ cells to IC50 for human NCI-H1975 cells expressing EGFR T790M/L858R mutant; format: toxicity
[8] = system: NCI-H1975; test: Inhibition of cell migration in human NCI-H1975 cells at 50 nM incubated for 24 hrs by phase contrast microscopy relative to control; format: functional; conditions: NCI-H1975, 24 h
[9] = system: NCI-H1975; test: Inhibition of cell migration in human NCI-H1975 cells at 25 nM incubated for 24 hrs by phase contrast microscopy relative to control; format: functional; conditions: Homo sapiens, NCI-H1975, 24 h
[10] = system: NCI-H1975; test: Induction of apoptosis in human NCI-H1975 cells assessed as early apoptotic cells at 5 nM incubated for 24 hrs by propidium iodide and annexin-V FITC staining based flow cytometry (reference value: 0.94 %); format: functional
[11] = system: NCI-H1975; test: Induction of apoptosis in human NCI-H1975 cells assessed as late apoptotic cells at 25 nM incubated for 24 hrs by propidium iodide and annexin-V FITC staining based flow cytometry (reference value: 0.23 %); format: functional
[12] = system: NCI-H1975; test: Induction of apoptosis in human NCI-H1975 cells assessed as necrotic cells at 25 nM incubated for 24 hrs by propidium iodide and annexin-V FITC staining based flow cytometry (reference value: 0.01 %); format: functional
[13] = system: NCI-H1975; test: Induction of apoptosis in human NCI-H1975 cells assessed as viable cells at 50 nM incubated for 24 hrs by propidium iodide and annexin-V FITC staining based flow cytometry (reference value: 98.82 %); format: functional; conditions: NCI-H1975, 24 h, read-out: Activity
[14] = system: NCI-H1975; test: Induction of apoptosis in human NCI-H1975 cells assessed as early apoptotic cells at 50 nM incubated for 24 hrs by propidium iodide and annexin-V FITC staining based flow cytometry (reference value: 0.94 %); format: functional
[15] = system: NCI-H1975; test: Induction of apoptosis in human NCI-H1975 cells assessed as necrotic cells at 50 nM incubated for 24 hrs by propidium iodide and annexin-V FITC staining based flow cytometry (reference value: 0.01 %); format: functional
[16] = system: NCI-H1975; test: Induction of apoptosis in human NCI-H1975 cells assessed as viable cells at 5 nM incubated for 48 hrs by propidium iodide and annexin-V FITC staining based flow cytometry (reference value: 99.05 %); format: functional; conditions: NCI-H1975, 48 h, read-out: Activity
[17] = system: NCI-H1975; test: Induction of apoptosis in human NCI-H1975 cells assessed as early apoptotic cells at 25 nM incubated for 48 hrs by propidium iodide and annexin-V FITC staining based flow cytometry (reference value: 0.95 %); format: functional
[18] = system: NCI-H1975; test: Induction of apoptosis in human NCI-H1975 cells assessed as necrotic cells at 25 nM incubated for 48 hrs by propidium iodide and annexin-V FITC staining based flow cytometry (reference value: 0.01 %); format: functional
[19] = system: NCI-H1975; test: Induction of apoptosis in human NCI-H1975 cells assessed as viable cells at 50 nM incubated for 48 hrs by propidium iodide and annexin-V FITC staining based flow cytometry (reference value: 99.05 %); format: functional; conditions: NCI-H1975, 48 h, read-out: Activity
[20] = system: NCI-H1975; test: Induction of apoptosis in human NCI-H1975 cells assessed as necrotic cells at 50 nM incubated for 48 hrs by propidium iodide and annexin-V FITC staining based flow cytometry (reference value: 0.01 %); format: functional
[21] = system: NCI-H1975; test: Induction of apoptosis in human NCI-H1975 cells assessed as early apoptotic cells at 5 nM incubated for 72 hrs by propidium iodide and annexin-V FITC staining based flow cytometry (reference value: 2.43 %); format: functional
[22] = system: NCI-H1975; test: Induction of apoptosis in human NCI-H1975 cells assessed as necrotic cells at 5 nM incubated for 72 hrs by propidium iodide and annexin-V FITC staining based flow cytometry (reference value: 0.01 %); format: functional
[23] = system: NCI-H1975; test: Induction of apoptosis in human NCI-H1975 cells assessed as viable cells at 25 nM incubated for 72 hrs by propidium iodide and annexin-V FITC staining based flow cytometry (reference value: 97.55 %); format: functional; conditions: NCI-H1975, 72 h, read-out: Activity
[24] = system: NCI-H1975; test: Induction of apoptosis in human NCI-H1975 cells assessed as early apoptotic cells at 25 nM incubated for 72 hrs by propidium iodide and annexin-V FITC staining based flow cytometry (reference value: 2.43 %); format: functional
[25] = system: NCI-H1975; test: Induction of apoptosis in human NCI-H1975 cells assessed as late apoptotic cells at 25 nM incubated for 72 hrs by propidium iodide and annexin-V FITC staining based flow cytometry (reference value: 0.01 %); format: functional
[26] = system: NCI-H1975; test: Induction of apoptosis in human NCI-H1975 cells assessed as viable cells at 50 nM incubated for 72 hrs by propidium iodide and annexin-V FITC staining based flow cytometry (reference value: 97.55 %); format: functional; conditions: NCI-H1975, 72 h, read-out: Activity
[27] = system: NCI-H1975; test: Induction of apoptosis in human NCI-H1975 cells assessed as early apoptotic cells at 50 nM incubated for 72 hrs by propidium iodide and annexin-V FITC staining based flow cytometry (reference value: 2.43 %); format: functional
[28] = system: NCI-H1975; test: Induction of apoptosis in human NCI-H1975 cells assessed as necrotic cells at 50 nM incubated for 72 hrs by propidium iodide and annexin-V FITC staining based flow cytometry (reference value: 0.01 %); format: functional
[29] = Cmax in ICR mouse at 10 mg/kg, po; format: ADME, organism-based; set-up: dose 10 mg/kg, route oral; conditions: in vivo
[30] = AUC (0 to t) in ICR mouse at 10 mg/kg, po; format: ADME, organism-based; conditions: in vivo
[31] = Half life in ICR mouse at 5 mg/kg, iv; format: ADME, organism-based; conditions: in vivo
[32] = Cmax in ICR mouse at 5 mg/kg, iv; format: ADME, organism-based; set-up: dose 5 mg/kg, route intravenous; conditions: in vivo
[33] = AUC (0 to t) in ICR mouse at 5 mg/kg, iv; format: ADME, organism-based; conditions: in vivo
[34] = MRT (0 to t) in ICR mouse at 5 mg/kg, iv; format: ADME, organism-based; conditions: in vivo
[35] = biological target: T1, Epidermal growth factor receptor; test: Inhibition of EGFR in human NCI-H292 cells assessed as reduction in EGFR Y1068 phosphorylation at incubated for 4 hrs by Western blot analysis; format: cell-based

T1 sequence (P00533 whole entry, the tested form may be a part): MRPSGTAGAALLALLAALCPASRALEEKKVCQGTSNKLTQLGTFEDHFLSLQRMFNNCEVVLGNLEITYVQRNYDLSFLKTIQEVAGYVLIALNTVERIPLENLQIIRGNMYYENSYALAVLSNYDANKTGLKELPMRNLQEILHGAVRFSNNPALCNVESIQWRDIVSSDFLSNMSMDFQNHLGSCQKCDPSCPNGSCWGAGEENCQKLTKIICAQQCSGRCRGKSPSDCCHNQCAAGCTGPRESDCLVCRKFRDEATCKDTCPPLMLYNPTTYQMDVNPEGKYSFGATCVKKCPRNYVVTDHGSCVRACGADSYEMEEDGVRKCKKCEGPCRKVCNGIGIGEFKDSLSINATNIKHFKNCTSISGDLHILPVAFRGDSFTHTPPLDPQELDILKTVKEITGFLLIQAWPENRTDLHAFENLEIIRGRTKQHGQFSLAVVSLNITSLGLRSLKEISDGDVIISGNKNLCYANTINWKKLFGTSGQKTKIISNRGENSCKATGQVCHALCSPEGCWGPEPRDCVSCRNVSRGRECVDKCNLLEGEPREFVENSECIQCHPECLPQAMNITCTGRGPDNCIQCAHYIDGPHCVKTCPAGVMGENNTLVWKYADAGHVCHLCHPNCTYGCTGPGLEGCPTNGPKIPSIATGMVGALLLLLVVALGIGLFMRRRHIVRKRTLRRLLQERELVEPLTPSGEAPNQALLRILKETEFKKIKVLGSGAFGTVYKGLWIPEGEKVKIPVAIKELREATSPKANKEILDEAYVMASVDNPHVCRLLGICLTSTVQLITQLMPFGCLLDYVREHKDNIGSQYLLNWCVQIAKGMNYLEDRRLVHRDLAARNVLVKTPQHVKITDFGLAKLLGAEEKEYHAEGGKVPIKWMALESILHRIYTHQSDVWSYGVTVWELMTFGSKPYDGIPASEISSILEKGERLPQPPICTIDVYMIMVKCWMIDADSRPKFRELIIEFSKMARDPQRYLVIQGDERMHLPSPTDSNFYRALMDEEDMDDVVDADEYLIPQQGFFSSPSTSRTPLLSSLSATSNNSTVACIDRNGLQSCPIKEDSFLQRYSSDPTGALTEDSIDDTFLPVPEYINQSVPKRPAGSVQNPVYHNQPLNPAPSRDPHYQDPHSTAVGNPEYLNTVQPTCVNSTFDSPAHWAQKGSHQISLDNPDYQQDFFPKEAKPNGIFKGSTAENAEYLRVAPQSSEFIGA
Chain of Epidermal growth factor receptor (Homo sapiens, UniProt P00533, L858R/T790M) (P00533 25-1210 T790M/L858R limits assumed): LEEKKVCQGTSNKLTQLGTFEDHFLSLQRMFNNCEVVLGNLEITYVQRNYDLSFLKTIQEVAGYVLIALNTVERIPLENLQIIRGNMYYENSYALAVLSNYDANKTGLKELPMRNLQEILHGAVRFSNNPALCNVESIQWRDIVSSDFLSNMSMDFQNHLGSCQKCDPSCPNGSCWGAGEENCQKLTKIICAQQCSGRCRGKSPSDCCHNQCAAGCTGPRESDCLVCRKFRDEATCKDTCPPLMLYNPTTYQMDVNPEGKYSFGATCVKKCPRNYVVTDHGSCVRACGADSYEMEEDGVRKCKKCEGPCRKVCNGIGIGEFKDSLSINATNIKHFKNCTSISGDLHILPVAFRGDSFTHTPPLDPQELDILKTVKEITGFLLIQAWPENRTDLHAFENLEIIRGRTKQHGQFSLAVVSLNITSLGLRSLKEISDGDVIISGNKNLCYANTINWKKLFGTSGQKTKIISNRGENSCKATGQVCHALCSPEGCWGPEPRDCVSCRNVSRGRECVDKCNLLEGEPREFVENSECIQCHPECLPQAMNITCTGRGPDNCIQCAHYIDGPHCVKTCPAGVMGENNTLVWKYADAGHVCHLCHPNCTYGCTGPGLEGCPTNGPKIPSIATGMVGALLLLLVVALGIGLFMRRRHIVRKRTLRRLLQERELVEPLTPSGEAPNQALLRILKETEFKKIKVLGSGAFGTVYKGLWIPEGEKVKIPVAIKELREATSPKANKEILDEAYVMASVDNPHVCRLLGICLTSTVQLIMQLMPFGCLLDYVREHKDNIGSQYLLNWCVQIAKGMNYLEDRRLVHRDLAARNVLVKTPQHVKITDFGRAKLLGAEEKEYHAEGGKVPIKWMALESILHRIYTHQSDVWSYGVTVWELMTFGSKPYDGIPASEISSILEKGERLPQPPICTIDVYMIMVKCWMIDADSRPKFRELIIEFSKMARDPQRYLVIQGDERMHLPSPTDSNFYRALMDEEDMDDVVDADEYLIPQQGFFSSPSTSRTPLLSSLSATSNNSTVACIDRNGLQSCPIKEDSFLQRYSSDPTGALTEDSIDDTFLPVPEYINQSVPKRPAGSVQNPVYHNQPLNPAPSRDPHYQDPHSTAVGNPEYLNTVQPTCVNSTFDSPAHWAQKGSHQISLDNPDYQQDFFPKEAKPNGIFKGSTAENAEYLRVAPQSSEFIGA

Question: With `C=CC(=O)Nc1cc(Nc2nccc(-c3cn(C)c4ccccc34)n2)c(OC)cc1[S+]([O-])CCN(C)C` (single isomer, unassigned; (-)) as the compound, how does the pIC50 [1] read?
Answer: The pIC50 was 8.40.

Question: What about the pIC50 [2] of the same compound?
Answer: Its pIC50 is 6.64.

Question: And the pIC50 [3]?
Answer: Its pIC50 is 8.00.

Question: And the pIC50 [4]?
Answer: Its pIC50 is 7.82.

Question: And the pIC50 [5]?
Answer: Its pIC50 is 5.96.

Question: What about the “Ratio IC50” value [6] of the same compound?
Answer: Its value is over 1000.

Question: And the “Ratio IC50” value [7]?
Answer: Its value is over 1000.

Question: What about the inhibition at 0.05 µM [8] of the same compound?
Answer: Its inhibition at 0.05 µM is 87.6%.

Question: What about the inhibition at 0.025 µM [9] of the same compound?
Answer: The inhibition at 0.025 µM was 69.7%.

Question: And the Activity [10]?
Answer: The Activity was 14.89%.

Question: What about the Activity [11] of the same compound?
Answer: The Activity was 0.86%.

Question: What about the Activity [12] of the same compound?
Answer: The Activity was 0.14%.

Question: What about the viability at 0.05 µM [13] of the same compound?
Answer: The viability at 0.05 µM was 65.6%.

Question: And the Activity [14]?
Answer: Its Activity is 31.61%.

Question: And the Activity [15]?
Answer: The Activity was 0.45%.

Question: What about the viability at 0.005 µM [16] of the same compound?
Answer: Its viability at 0.005 µM is 77%.

Question: What about the Activity [17] of the same compound?
Answer: Its Activity is 51.86%.

Question: And the Activity [18]?
Answer: The Activity was 0.69%.

Question: And the viability at 0.05 µM [19]?
Answer: Its viability at 0.05 µM is 13.7%.

Question: And the Activity [20]?
Answer: The Activity was 0.71%.

Question: What about the Activity [21] of the same compound?
Answer: The Activity was 21.59%.

Question: And the Activity [22]?
Answer: Its Activity is 1.2%.

Question: What about the viability at 0.025 µM [23] of the same compound?
Answer: Its viability at 0.025 µM is 35.2%.

Question: What about the Activity [24] of the same compound?
Answer: Its Activity is 43.25%.

Question: What about the Activity [25] of the same compound?
Answer: The Activity was 21.68%.

Question: And the viability at 0.05 µM [26]?
Answer: The viability at 0.05 µM was 11.3%.

Question: What about the Activity [27] of the same compound?
Answer: Its Activity is 58.1%.

Question: What about the Activity [28] of the same compound?
Answer: The Activity was 1.84%.

Question: And the Cmax [29]?
Answer: Its Cmax is 695 ng/mL.

Question: And the AUC(0-t) [30]?
Answer: The AUC(0-t) was 1910 ng·h/mL.

Question: And the half-life [31]?
Answer: The half-life was 1.12 h.

Question: And the Cmax [32]?
Answer: The Cmax was 1610 ng/mL.

Question: And the AUC(0-t) [33]?
Answer: The AUC(0-t) was 1290 ng·h/mL.

Question: What about the MRT last [34] of the same compound?
Answer: Its MRT last is 1.15 h.

Question: And the pEC50 [35]?
Answer: Its pEC50 is 7.04.
